Reference: patent US20260373148A1, “5-FLUOROURACIL DERIVATIVE AND ANTI-TUMOR USE THEREOF” (SICHUAN UNIVERSITY, priority 2023, published 2026)
Entries after “also recorded” stand apart in the source; their conditions may differ.

What was measured:
OSCC cells = conditions: in words; Heilongjiang Medicine and Pharmacy, February 2009; cited from earlier work
HN30 cells = assay: Inhibition of proliferation of HN30 squamous cell carcinoma cells (CCK-8 assay); type: cell-based; conditions: 48 hours, 0, 1.25, 2.5, 5, 10 μM, read-out: IC50 values against HN30 cells
Procedure: (§1) Squamous cell carcinoma cell lines: HN30, HN12, Cal-27, HSC-3.
(§2) Test compounds: Compounds 3a, 3b, 3c; Compound 1 (i.e., 5-fluorouracil).
(§3) The experimental procedure was as follows: All four tumor cell lines were cultured in a standardized incubator at 37 °C with 5% CO2. Cells in logarithmic growth phase were digested, counted, and seeded onto 96-well plates at 3000 cells/well. They were then cultured overnight in the incubator. The test compounds were prepared into a stock solution with DMSO at a concentration of 10 mM, and were diluted sequentially (0, 1.25, 2.5, 5, 10 μM) before treating the cells. The control group was treated with the highest concentration of DMSO. The cells were cultured for additional 48 hours in the incubator, and the effect of each compound on the proliferation of the four tumor cell lines was assessed using CCK-8 assay. Meanwhile, the experimental results of compound 3a and compound 1 were analyzed to obtain their IC50 values, and the effects of both compounds on tumor cell proliferation were compared.

Cal27 cells = assay: Inhibition of proliferation of Cal27 squamous cell carcinoma cells (CCK-8 assay); type: cell-based; conditions: Homo sapiens, CAL-27, 48 hours, 0, 1.25, 2.5, 5, 10 μM, read-out: IC50 values against Cal27 cells
Procedure: as §1, §2, §3

[1] = system: squamous cell carcinoma cells HN30, HN12, Cal-27, and HSC-3; assay: Inhibitory effect of compounds on the proliferation of squamous cell carcinoma cells HN30, HN12, Cal-27, HSC-3 (CCK-8 assay); type: cell-based; conditions: in words, 48 hours; for inhibitory effect on the proliferation of tumor cells: HN30, HN12, Cal-27, HSC-3, 0, 1.25, 2.5, 5, 10 μM
Procedure: as §1, §2, §3

Row | IC50 (HN30 cells) [µM] | IC50 (Cal27 cells) [µM] | SMILES | induction of apoptosis in OSCC cells (OSCC cells) | inhibitory effect on the proliferation of tumor cells [1] | IC50 value compared with compound 1 ([1]; compound 3a versus compound 1, FIGS. 2 and 3 (HN30 and Cal27))
1 | 21.7 | 22.8 | O=c1[nH]cc(F)c(=O)[nH]1 [Compound 1, 5-fluorouracil] | can induce apoptosis in OSCC cells | higher anti-tumor activity in a higher concentration range | 
2 | 7.09 | 6.54 | O=C(CCn1cc(F)c(=O)n(CCC(=O)Nc2ccc(C34CC5CC(CC(C5)C3)C4)cc2)c1=O)Nc1ccc(C23CC4CC(CC(C4)C2)C3)cc1 [Compound 3a] |  | significantly better inhibitory effect than 5-fluorouracil; also recorded: significantly higher than that of compounds 1, 3b, and 3c; also recorded: significantly better than that of 5-fluorouracil | significantly lower than that of compound 1
3 |  |  | O=C(CCn1cc(F)c(=O)[nH]c1=O)Nc1ccc(C23CC4CC(CC(C4)C2)C3)cc1 [Compound 3b] |  | did not show significant improvement | 
4 |  |  | O=C(CCn1c(=O)[nH]cc(F)c1=O)Nc1ccc(C23CC4CC(CC(C4)C2)C3)cc1 [Compound 3c] |  | did not show significant improvement | 
